Test results taken from article PMC9023544, “Ketone-selenoesters as potential anticancer and multidrug resistance modulation agents in 2D and 3D ovarian and breast cancer in vitro models” (Scientific Reports, 2022).
Counter-ions that a name gives are not always drawn. Like-named read-outs stand apart in the source and are kept apart here.

Experiments:
[1] = tested on: HOC (human parental ovarian adenocarcinoma, A2780); assay: Cytotoxic activity, 2D, resazurin, 72 h; assay type: cell-based; details: for IC50: 2D, 72 h, mean ± SEM, n=3, read-out: HOC IC50; for SI HEK293/HOC: IC50 HEK293 / IC50 HOC
Procedure: (§1) The cytotoxic potential of selenoesters was tested on several cancer cell lines—HOC (human parental ovarian adenocarcinoma, HOC, A2780, Sigma-Aldrich), HOC/ADR (sub-line resistant to Adriamycin, A2780/ADR, Sigma-Aldrich), MCF-7 (human breast adenocarcinoma, ATCC®, HTB-22TM), MCF-7/PAX (resistant sub-line established by gradual adaptation of parental cells to increased concentration of paclitaxel; kindly provided by Division of Cell and Molecular Biology, Third Faculty of Medicine, Charles University, Czech Republic) and on one non-cancerous cell line—HEK293 (human embryonic kidney cell line, Leibniz Institute, DSMZ-German Collection of Microorganisms and Cell Cultures GmbH). All mentioned cell lines were authenticated using short tandem repeat (STR) profiling. Cell lines were cultivated in DMEM medium (10% FBS, 1× antibiotic antimycotic solution), except for HEK293 cell line which was cultivated without antibiotics. In case of the resistant cell lines, the medium was supplemented with a required concentration of cytostatics to maintain resistance (HOC/ADR—100 nM Adriamycin; MCF-7/PAX—300 nM paclitaxel). All cells were cultivated in a CO2 incubator (5% CO2, 37 °C, Thermo Fisher Scientific).
(§2) For the experiment, the cells at passage number 5–20 were seeded at a 1 × 10^5 cells/mL concentration into 96-well plates to 100 µL final volume. The final concentration range of the compounds was 0.63–20 µM. After an incubation of 72 h, the plates were washed 1× with PBS and resazurin solution (0.03 mg/mL in 1× PBS) was added. After 1 h of incubation, the fluorescence signal was recorded (ex./em. 560/590 nm).
(§3) The selectivity index (SI) was determined as the ratio of IC50 value for the non-cancerous cells to IC50 for the cancer cell line. For resistant cell lines, the collateral sensitivity (CS) was calculated as the ratio of IC50 value in sensitive tumour cells to IC50 in the resistant cancer cell line. In both cases, the selectivity is considered as: (1) strongly selective when SI or CS value is above 6, (2) moderately selective when SI or CS is between 3 and 6, (3) slightly selective when SI or CS is between 1 and 3 and (4) non-selective when SI or CS is less than 1[23].

[2] = tested on: MCF-7 (human breast adenocarcinoma); assay: Cytotoxic activity, 2D, resazurin, 72 h; assay type: cell-based; details: for IC50: Homo sapiens, MCF7, 2D, 72 h, mean ± SEM, n=3, read-out: MCF-7 IC50; for SI HEK293/MCF-7: IC50 HEK293 / IC50 MCF-7
Procedure: as §1, §2, §3

[3] = tested on: HOC/ADR (sub-line resistant to Adriamycin, A2780/ADR); assay: Cytotoxic activity, 2D, resazurin, 72 h; assay type: cell-based, human; details: for IC10 / IC50: Homo sapiens, A2780 ADR, 72 h; for IC10: HOC/ADR, concentration that should not decrease viability under 90%, read-out: IC10 of compounds; for IC50: 2D, mean ± SEM, n=3, read-out: HOC/ADR IC50; for SI HEK293/HOC/ADR: IC50 HEK293 / IC50 HOC/ADR; for CS (collateral sensitivity index): IC50 HOC / IC50 HOC/ADR
Procedure: as §1, §2, §3

[4] = tested on: MCF-7/PAX (paclitaxel-resistant sub-line); assay: Cytotoxic activity, 2D, resazurin, 72 h; assay type: cell-based, human; details: for IC50: Homo sapiens, MCF7, 2D, 72 h, mean ± SEM, n=3, read-out: MCF-7/PAX IC50; for SI HEK293/MC7-7/PAX: IC50 HEK293 / IC50 MCF-7/PAX; for CS (collateral sensitivity index): IC50 MCF-7 / IC50 MCF-7/PAX
Procedure: as §1, §2, §3

[5] = tested on: HEK293 (human embryonic kidney cell line); assay: Cytotoxic activity, non-cancerous cell line, resazurin, 72 h; assay type: cell-based; details: Homo sapiens, HEK293; 72 h, mean ± SEM, n=3
Procedure: as §1, §2, §3

[6] = tested on: HOC/ADR; assay: Sensitization of MDR cell line to Adriamycin; assay type: cell-based, human; details: for Fold change: IC50 of Adriamycin / IC50 of Adriamycin with IC10 dose of compound; for increase of the IC50 of Adriamycin: IC10 dose of compound
Procedure: To determine the sensitization potential of compounds, HOC/ADR and MCF-7/PAX were used. Based on the cytotoxic potential of the compounds against several cancer and non-cancerous cell lines (Table 1), the concentrations of applied compounds were adjusted. IC10 values was considered as the concentrations, which should not decrease the cell viability under 90%. After the addition of compounds, Adriamycin (concentration range 0.1–20 µM) and paclitaxel (concentration range 0.1–10 µM) were added to HOC/ADR and MCF-7/PAX, respectively. The sensitization potential of the compounds was determined as the ratio of the IC50 of cytostatic agent (Adriamycin/paclitaxel) to the IC50 of cytostatic agent affected by the compound in concentration corresponding to the IC10 value. Fold change greater than 1 indicated synergic effect of cytostatic agent and the tested compound.
After that, the plates were washed 1× with PBS and fresh DMEM medium supplemented with tested compounds at final concentration corresponding their IC10 value was added, except for positive control wells. Subsequently, Adriamycin (concentration range 0.1–20 µM) or paclitaxel (concentration range 0.1–10 µM) was added to the appropriate cell line for 72 h. After incubation, the cells were washed 1× with PBS and the resazurin solution (0.03 mg/mL) was added to evaluate the cell viability as described above. IC50 values of cytostatics were calculated for both the control and compounds; a fold change was counted up. When this fold change is higher than 1 indicates a synergism between the tested cytostatic agent and the compound, while a fold change lower than 1 means an antagonism. Fold change=IC50value of cytostatic treated cells only/IC50value of cytostatic treated cells in addition of the compound

Compound | IC50 ([1]; Homo sapiens, A2780, 72 h) | SI HEK293/HOC [1] | IC50 [2] | SI HEK293/MCF-7 [2] | collateral sensitivity against HOC/ADR (in words) [3] | IC10 [3] | IC50 [3] | SI HEK293/HOC/ADR [3] | CS (collateral sensitivity index) [3] | IC50 [4] | SI HEK293/MC7-7/PAX [4] | CS (collateral sensitivity index) [4] | IC50 [5] | Fold change [6] | collateral sensitivity against paclitaxel-resistant breast carcinoma (in words) [4] | increase of the IC50 of Adriamycin [6] | IC50 ([6]; Homo sapiens, Adriamycin 0.1–20 µM with IC10 dose of compound, 72 h, ADR row = Adriamycin alone) | selectivity versus HEK293 (in words) ([2]; sensitive MCF-7) | IC50 [1]
N#CC[Se]C(=O)c1ccc(Br)cc1 [N3] | 6500 ± 300 nM | 1.2 ± 0.1 | 2300 ± 500 nM | 3.5 ± 0.9 | slight collateral sensitivity | 3100 nM | 5200 ± 100 nM | 1.5 ± 0.1 | 1.3 ± 0.1 | 2700 ± 200 nM | 3.0 ± 0.6 | 0.9 ± 0.3 | 8000 ± 300 nM | (1.3 ± 0.0)× |  |  |  |  | 
N#CC[Se]C(=O)c1cccs1 [N1] | 2700 ± 300 nM | 2.2 ± 0.4 | 3100 ± 200 nM | 2.0 ± 0.3 |  | 2500 nM | 4200 ± 200 nM | 1.4 ± 0.2 | 0.7 ± 0.1 | 2500 nM | 2.4 ± 0.4 | 1.2 ± 0.2 | 6000 ± 600 nM | (0.3 ± 0.1)× | slight collateral sensitivity | 3.5 fold |  |  | 
CC(=O)C[Se]C(=O)c1cccc(C(F)(F)F)c1 [K5] | 1100 nM | 1.5 ± 0.0 | 1600 ± 100 nM | 1.0 ± 0.1 |  | 1500 nM | 2200 ± 300 nM | 0.7 ± 0.1 | 0.5 ± 0.1 | 2800 ± 100 nM | 0.6 ± 0.0 | 0.6 ± 0.1 | 1600 nM | (0.5 ± 0.1)× |  | almost twofold |  |  | 
CC(=O)C[Se]C(=O)c1cc(F)c(F)cc1F [K8] | 2100 ± 100 nM | 0.9 ± 0.1 | 2600 ± 400 nM | 0.8 ± 0.1 |  | 3000 nM | 2700 nM | 0.7 ± 0.0 | 0.8 ± 0.1 | 2000 ± 100 nM | 1.0 ± 0.2 | 1.3 ± 0.3 | 2000 ± 200 nM | (1.1 ± 0.1)× | slight collateral sensitivity |  |  |  | 
N#CC[Se]C(=O)c1cccc(F)c1 [N2] | 7100 ± 200 nM | 1.1 ± 0.1 | 2600 ± 100 nM | 3.0 ± 0.2 | slight collateral sensitivity | 3000 nM | 4700 ± 100 nM | 1.7 ± 0.1 | 1.5 ± 0.1 | 2500 ± 300 nM | 3.1 ± 0.2 | 1.0 ± 0.1 | 7800 ± 200 nM | (1.2 ± 0.1)× |  |  |  |  | 
COc1cccc2c1C(=O)c1c(O)c3c(c(O)c1C2=O)C[C@@](O)(C(=O)CO)C[C@@H]3O[C@H]1C[C@H](N)[C@H](O)[C@H](C)O1 [ADR, doxorubicin hydrochloride, reference compound] | 10 nM |  |  |  |  |  | 2500 nM |  |  |  |  |  |  |  |  |  | 2500 nM |  | 
N#CC[Se]C(=O)c1cc(C(F)(F)F)cc(C(F)(F)F)c1 [N7] | 2900 ± 100 nM | 2.3 ± 0.3 | 2200 ± 100 nM | 3.0 ± 0.5 |  | 3100 nM | 5700 ± 200 nM | 1.2 ± 0.1 |  | 2700 ± 300 nM | 2.5 ± 0.4 | 0.8 ± 0.1 | 6600 ± 600 nM | (1.1 ± 0.1)× |  |  |  | moderate selectivity | 
CC(=O)C[Se]C(=O)c1ccccc1F [K2] | < 1000 nM | 1.6 ± 0.1 | 1900 ± 100 nM | 0.7 ± 0.1 |  | 1000 nM | 2400 ± 100 nM | 0.5 ± 0.0 | 0.3 ± 0.0 | 1900 ± 100 nM | 0.6 ± 0.1 | 1.0 ± 0.1 | 1200 ± 100 nM | (1.2 ± 0.0)× |  |  |  |  | 800 ± 100 nM
N#CC[Se]C(=O)c1ccccc1C(F)(F)F [N4] | 2400 ± 100 nM | 2.2 ± 0.2 | 2100 ± 100 nM | 2.5 ± 0.2 |  | 2400 nM | 3700 ± 200 nM | 1.4 ± 0.1 | 0.6 ± 0.1 | 2400 ± 200 nM | 2.1 ± 0.2 | 0.9 ± 0.1 | 5200 ± 300 nM | (1.3 ± 0.1)× |  |  |  |  | 
N#CC[Se]C(=O)c1cccc(C(F)(F)F)c1 [N5] | 2300 ± 100 nM | 2.7 ± 0.2 | 2500 ± 200 nM | 2.4 ± 0.3 |  | 2500 nM | 4500 ± 200 nM | 1.3 ± 0.1 | 0.5 ± 0.1 | 2700 ± 200 nM | 2.3 ± 0.2 | 0.9 ± 0.2 | 6000 ± 200 nM | (1.2 ± 0.2)× |  |  |  |  | 
N#CC[Se]C(=O)c1ccc(F)c(Cl)c1 [N6] | 2400 ± 200 nM | 2.1 ± 0.2 | 1700 nM | 2.9 ± 0.1 |  | 2600 nM | 3600 nM | 1.4 ± 0.0 | 0.7 ± 0.1 | 1900 ± 100 nM | 2.6 ± 0.1 | 0.9 ± 0.0 | 4900 ± 100 nM | (0.4 ± 0.0)× |  | almost threefold |  |  | 
CC(=O)C[Se]C(=O)c1ccc(F)c(Cl)c1 [K6] | < 1000 nM | 2.7 ± 0.4 | 2100 ± 200 nM | 0.9 ± 0.2 |  | 1300 nM | 2600 ± 100 nM | 0.8 ± 0.1 | 0.3 ± 0.0 | 2300 ± 300 nM | 0.9 ± 0.1 | 0.9 ± 0.1 | 2000 ± 100 nM | (1.1 ± 0.1)× |  |  |  |  | 700 ± 100 nM
CC(=O)O[C@H]1C(=O)[C@@]2(C)[C@H]([C@H](OC(=O)c3ccccc3)[C@]3(O)C[C@H](OC(=O)[C@H](O)[C@@H](NC(=O)c4ccccc4)c4ccccc4)C(C)=C1C3(C)C)[C@]1(OC(C)=O)CO[C@@H]1C[C@@H]2O [PAX, paclitaxel, reference compound] |  |  | 30 nM |  |  |  |  |  |  | 1500 nM |  |  |  |  |  |  |  |  | 
